From US11427552B2, “Heterocyclic compounds useful in the treatment of disease” (EPIGEN BIOSCIENCES, INC., priority 2013, dated 2022) come the findings set out here.

Where “and” joins values, the source holds several entries; their conditions need not be identical. Equal entries are not always repeated. Where only a bound is given, the exact number is not on record here.

T1 sequence (Q92633 whole entry): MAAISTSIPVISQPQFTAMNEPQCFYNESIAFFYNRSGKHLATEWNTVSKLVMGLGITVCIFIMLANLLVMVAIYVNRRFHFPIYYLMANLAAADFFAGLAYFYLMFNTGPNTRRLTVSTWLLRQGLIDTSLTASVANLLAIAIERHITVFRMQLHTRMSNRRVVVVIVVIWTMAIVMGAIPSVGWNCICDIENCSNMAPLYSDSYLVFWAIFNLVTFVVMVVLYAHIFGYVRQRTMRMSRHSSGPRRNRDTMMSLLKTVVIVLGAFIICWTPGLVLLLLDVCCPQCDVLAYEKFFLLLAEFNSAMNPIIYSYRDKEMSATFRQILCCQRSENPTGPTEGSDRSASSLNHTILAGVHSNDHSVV

The assay addresses T1, LPA1R (Homo sapiens, UniProt Q92633).
T1 construct: host or cells: LPA1R expressing cells (Millipore, GPCR Profiler)
As to the kind of experiment: LPA1R Ca2+ flux functional assay (antagonist mode, FLIPR). Conditions: inhibition of LPA-stimulated Ca2+ flux, LPA at EC80, LPA1R expressing cells (Millipore); read-out: LPA1 R Antagonist Activity. In kind it is cell-based. The procedure:
Inhibition of LPA-stimulated Ca^2+ flux was used to assess compound potency using FLIPR technology in a 96 well plate format. The assay buffer used was a modified Hanks Balanced Salt Solution (HBSS) where HBSS was supplemented to contain 20 mM HEPES and 2.5 mM Probenecid at pH7.4 (Millipore, GPCR Profiler®). LPA1R expressing cells (Millipore) were plated and prepared 24 hours prior to assay of test articles. Ca^2+ ion flux was assessed from fluorescence of a Fluo-based No Wash Ca^2+ dye. Antagonist data are generated from plates with LPA concentrations sufficient to generate 80% efficacy [EC80]. Percentage inhibition was calculated from a reduction of efficacy according to concentration of compounds of Formula I-VI. For dose responses the inhibition data was used to calculate compound IC50. The agonist assay was conducted on a FLIPR^TETRA instrument where the test compound(s), vehicle controls, and reference agonist were added to the assay plate after a fluorescence baseline was established. The agonist assay was a total of 180 seconds and was used to assess each compound's ability to activate each GPCR assayed. Upon completion of the agonist assay, the assay plate was removed from the FLIPR^TETRA and incubated at 25° C. for seven (7) minutes. After the incubation period, the assay plate was placed back in the FLIPR^TETRA and the antagonist assay was initiated. Using EC80 potency values determined during the agonist assay, all pre-incubated sample compound wells were challenged with EC80 concentration of reference agonist after establishment of a fluorescence baseline. The antagonist assay was conducted using the same assay plate that was used for the agonist assay. The antagonist assay was conducted on a FLIPR^TETRA instrument where 9 vehicle controls and EC80 concentration of reference agonist were added to appropriate wells. The antagonist assay was a total of 180 seconds and was used to assess each compound's ability to inhibit each GPCR assayed. All assay plate data were subjected to appropriate baseline corrections. After baseline corrections were applied, maximum fluorescence values were exported and data processed to calculate percentage activation (relative to Emax reference agonist and vehicle control values), percentage inhibition (relative to EC80 and vehicle control values), and additional statistical values (i.e. Z′, percentage variation between replicate data values) to assess the quality of each plate. Where assay plate data were rejected, additional experiments were conducted. All dose response curves were generated using GraphPad Prism. The curves were fit by utilizing “Sigmoidal Dose Response (Variable Slope)” equation where the bottom parameter was fixed to “0.” Where appropriate, the top parameter was fixed to “100” to better predict potency values when a full curve was not generated by the concentrations assayed.
(In general: Calcium assays in cells follow changes in intracellular calcium, usually with a dye or a luminescent sensor.)
Consider `Cc1noc(-c2ccc(C(=O)N[C@H](Cc3ccc(Br)cc3)C(=O)O)cc2)c1NC(=O)O[C@H](C)c1ccccc1Cl` [Example 25, (R)-3-(4-Bromo-phenyl)-2-(4-{4-[(R)-1-(2-chloro-phenyl)-ethoxycarbonylamino]-3-methyl-isoxazol-5-yl}-benzoylamino)-propionic Acid], for which the IC50 is less than 300 nM.

For `Cc1noc(-c2ccc(C(=O)N[C@H](Cc3ccccc3F)C(=O)O)cc2)c1NC(=O)O[C@H](C)c1ccccc1Cl` [Example 26, (R)-2-(4-{4-[(R)-1-(2-Chloro-phenyl)-ethoxycarbonylamino]-3-methyl-isoxazol-5-yl}-benzoylamino)-3-(2-fluoro-phenyl)-propionic Acid], the IC50 was less than 300 nM.

Take `Cc1ccc(C[C@@H](NC(=O)c2ccc(-c3onc(C)c3NC(=O)O[C@H](C)c3ccccc3Cl)cc2)C(=O)O)cc1` [Example 27, (R)-2-(4-{4-[(R)-1-(2-Chloro-phenyl)-ethoxycarbonylamino]-3-methyl-isoxazol-5-yl}-benzoylamino)-3-p-tolyl-propionic Acid]: the IC50 is less than 300 nM.

For the compound `Cc1noc(-c2ccc(C(=O)N[C@H](Cc3ccc(C(F)(F)F)cc3)C(=O)O)cc2)c1NC(=O)O[C@H](C)c1ccccc1Cl` [Example 28, (R)-2-(4-{4-[(R)-1-(2-Chloro-phenyl)-ethoxycarbonylamino]-3-methyl-isoxazol-5-yl}-benzoylamino)-3-(4-trifluoromethyl-phenyl)-propionic Acid], the IC50 was less than 300 nM.

In the case of `Cc1noc(-c2ccc(C(=O)N[C@H](Cc3ccc(C#N)cc3)C(=O)O)cc2)c1NC(=O)O[C@H](C)c1ccccc1Cl` [Example 29, (R)-2-(4-{4-[(R)-1-(2-Chloro-phenyl)-ethoxycarbonylamino]-3-methyl-isoxazol-5-yl}-benzoylamino)-3-(4-cyano-phenyl)-propionic Acid], the IC50 was 1000 to 50000 nM.

For the compound `Cc1cnn(-c2ccc(C(=O)N[C@H](Cc3ccccc3)C(=O)O)cc2)c1NC(=O)O[C@H](C)c1ccccc1Cl` [Example 30, (R)-2-(4-{5-[(R)-1-(2-Chloro-phenyl)-ethoxycarbonylamino]-4-methyl-pyrazol-1-yl}-benzoylamino)-3-phenyl-propionic Acid], the IC50 is > 50000 nM and 1000 to 50000 nM.

`Cc1noc(-c2ccc(CN[C@H](Cc3ccccc3)C(=O)O)cc2)c1NC(=O)O[C@H](C)c1ccccc1` [Example 31, (R)-2-{4-[3-Methyl-4-((R)-1-phenyl-ethoxycarbonylamino)-isoxazol-5-yl]-benzylamino}-3-phenyl-propionic Acid]: the IC50 is less than 300 nM.

Take `Cc1noc(-c2ccc(CN[C@H](Cc3ccccc3F)C(=O)O)cc2)c1NC(=O)O[C@H](C)c1ccccc1` [Example 32, (R)-3-(2-Fluoro-phenyl)-2-{4-[3-methyl-4-((R)-1-phenyl-ethoxycarbonylamino)-isoxazol-5-yl]-benzylamino}-propionic Acid]: the IC50 was less than 300 nM.

`Cc1noc(-c2ccc(CN[C@H](Cc3ccc(C(F)(F)F)cc3)C(=O)O)cc2)c1NC(=O)O[C@H](C)c1ccccc1` [Example 33, (R)-2-{4-[3-Methyl-4-((R)-1-phenyl-ethoxycarbonylamino)-isoxazol-5-yl]-benzylamino}-3-(4-trifluoromethyl-phenyl)-propionic Acid]: the IC50 is less than 300 nM.

For `Cc1noc(-c2ccc(CN[C@H](CC3CC3)C(=O)O)cc2)c1NC(=O)O[C@H](C)c1ccccc1` [Example 34, (R)-3-Cyclopropyl-2-{4-[3-methyl-4-((R)-1-phenyl-ethoxycarbonylamino)-isoxazol-5-yl]-benzylamino}-propionic acid], the IC50 was less than 300 nM.

Regarding `Cc1noc(-c2ccc(CN[C@H](Cc3ccccc3Cl)C(=O)O)cc2)c1NC(=O)O[C@H](C)c1ccccc1` [Example 35, (R)-3-(2-Chloro-phenyl)-2-{4-[3-methyl-4-((R)-1-phenyl-ethoxycarbonylamino)-isoxazol-5-yl]-benzylamino}-propionic Acid], the IC50 was less than 300 nM.
